Data reported in article PMC3412276 (Molecular Microbiology, 2012).

Biological target: T1, TbPMI (phosphomannose isomerase) (Trypanosoma brucei, UniProt Q381V7)
T1 construct: gene Tb11.01.6410
T1 sequence (Q381V7 1-409): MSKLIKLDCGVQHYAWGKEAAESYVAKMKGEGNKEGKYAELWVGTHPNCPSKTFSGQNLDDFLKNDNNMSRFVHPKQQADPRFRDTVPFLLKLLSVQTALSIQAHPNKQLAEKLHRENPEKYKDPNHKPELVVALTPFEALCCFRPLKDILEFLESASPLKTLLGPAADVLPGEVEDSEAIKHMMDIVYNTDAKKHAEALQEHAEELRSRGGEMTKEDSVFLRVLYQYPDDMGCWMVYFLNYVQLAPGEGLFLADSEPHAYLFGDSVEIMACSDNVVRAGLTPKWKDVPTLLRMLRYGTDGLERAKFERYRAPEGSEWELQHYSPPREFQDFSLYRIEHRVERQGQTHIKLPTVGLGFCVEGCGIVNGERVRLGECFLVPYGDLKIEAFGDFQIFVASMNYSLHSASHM
Assay: HPAEC with pulsed amperiometric detection
Type: biochemical
Conditions: 0.25 mM sugar-6P, 2 mM bis-tris propane pH 7.3, 2.5 mM MgCl2, 37°C, 15 min

Compound | HPAEC with pulsed amperiometric detection (converted to Man-6P) | HPAEC with pulsed amperiometric detection (converted to Fru-6P)
O=P(O)(O)OC[C@H]1OC(O)(CO)[C@@H](O)[C@@H]1O (some centres unmarked) [Fru-6P] | to be able to convert Man-6P to Fru-6P and Fru-6P to Man-6P, as expected | –
O=P(O)(O)OC[C@H]1OC(O)[C@@H](O)[C@@H](O)[C@@H]1O (some centres unmarked) [Man-6P] | – | to be able to convert Man-6P to Fru-6P and Fru-6P to Man-6P, as expected
